Assay results from PMC9381478, “A context-dependent and disordered ubiquitin-binding motif” (Cellular and Molecular Life Sciences: CMLS, 2022).
Entries after “also recorded” stand apart in the source; their conditions may differ.

Tests used:
[1] = target: T1, ubiquitin (Schizosaccharomyces pombe, UniProt P0CH06); assay: Membrane-bound peptide array probed with Cy5-labeled ubiquitin; type: binding, S. pombe; details: 15-mer peptides on cellulose membrane, 0.4 µM Cy5-labeled ubiquitin, 1 h, RT, fluorescence at 650 nm, mean of two membranes; compared with Pep1
T1 construct: plasmid coding for S. pombe ubiquitin with an N-terminal 6xhistidine-tag, TEV-cleavage site as well as an N-terminal free cysteine; made in house; host or cells: E. coli BL21(DE3)
Description: Two identical membrane-bound peptide arrays, each with 50 peptide spots, were purchased from JPT peptide technologies as PepSpots™ (Germany). Here, peptides are covalently attached to a cellulose membrane with the C-terminal amino acid through a β-alanine. Each peptide spot contained approximately 2.44·10^15 molecules or 4 nmol peptides. For detection of binding, ubiquitin was labeled at the N-terminal free cysteine with Cy5 maleimide fluorophore (GE Healthcare), which has an emission maximum at 666 nm. Ubiquitin or His6-SUMO (50 µL–70 µM) was reduced with 10 times molar excess tris(2-carboxyethyl)phosphine (TCEP), and incubated with one aliquot of 10 µL, 3 mM Cy5 in dimethyl sulfoxide (DMSO) at RT for 2 h. Excess Cy5 was neutralized with 10 µL 14.3 mM βME, and the mixture was separated on a gravity flow Sepharose column (from NanoTemper Monolith Protein Labeling Kit Red-NHS (Amine Reactive)). The column was equilibrated with tris buffered saline with Tween 20 (TBS-T) buffer (20 mM Tris, 150 mM NaCl, 1 mM EDTA, 500 µL/L Tween 20, pH 7). The ubiquitin/SUMO-Cy5 mixture (73.5 µL) was loaded on the column, followed by 426.5 µL TBS-T buffer. To evaluate the concentration of ubiquitin and Cy5, the absorbance at 280 nm and 650 nm of each fraction was measured on a ND-1000 NanoDrop spectrophotometer (Thermo Fischer Scientific). Fractions where the absorbance peaked at both wavelengths simultaneously were pooled and used for the peptide array.
All wash and incubation steps were performed at RT on a rocking table. The membranes were first washed with 25 mL TBS-T buffer two times for 5 min. Next, the membranes were blocked with blocking buffer (TBS-T with 5% (w/v) skim milk powder) for 1 h and washed for 10 min in TBS-T buffer and the background signal at 650 nm acquired using a Chemidoc imager (Bio-Rad). […] After the incubation, the membranes were washed with TBS-T buffer for five times 5 min and the fluorescence signal at 650 nm acquired on the Chemidoc imager. The fluorescent signal was quantified using the image processing software ImageJ. The intensity from each peptide spot was read using the Microarray Profile plugin. The intensities acquired before adding ubiquitin were subtracted from the signals acquired after. Finally, the mean between the corresponding values from the two membranes was calculated and reported as the signal intensity for each peptide.

[2] = target: SUMO; details: read-out: SUMO affinity of known SUMO interacting motif; cited from earlier work
Description: To investigate the binding specificity, we tested the peptides for interaction with the structurally related small ubiquitin-like modifier (SUMO), a ubiquitin-like protein also used as posttranslational modification, but involved in different signaling pathways. SUMO binds to extended stretches of residues with an interaction motif consisting of φφXφ, often followed by negatively charged residues or phosphorylation sites, where φ represents hydrophobic residues. Thus, known SUMO binding features partly overlap the features extracted above. Fluorescently labeled SUMO was added to ...

[3] = system: SUMO; assay: Membrane-bound peptide array probed with Cy5-labeled SUMO; type: binding; details: 15-mer peptides on cellulose membrane, 0.4 µM Cy5-labeled His6-SUMO, 1 h, RT, fluorescence at 650 nm, mean of two membranes
Description: Two identical membrane-bound peptide arrays, each with 50 peptide spots, were purchased from JPT peptide technologies as PepSpots™ (Germany). Here, peptides are covalently attached to a cellulose membrane with the C-terminal amino acid through a β-alanine. Each peptide spot contained approximately 2.44·10^15 molecules or 4 nmol peptides. For detection of binding, ubiquitin was labeled at the N-terminal free cysteine with Cy5 maleimide fluorophore (GE Healthcare), which has an emission maximum at 666 nm. […] To evaluate the concentration of ubiquitin and Cy5, the absorbance at 280 nm and 650 nm of each fraction was measured on a ND-1000 NanoDrop spectrophotometer (Thermo Fischer Scientific). Fractions where the absorbance peaked at both wavelengths simultaneously were pooled and used for the peptide array.
All wash and incubation steps were performed at RT on a rocking table. […] After the incubation, the membranes were washed with TBS-T buffer for five times 5 min and the fluorescence signal at 650 nm acquired on the Chemidoc imager. The fluorescent signal was quantified using the image processing software ImageJ. The intensity from each peptide spot was read using the Microarray Profile plugin. […] Finally, the mean between the corresponding values from the two membranes was calculated and reported as the signal intensity for each peptide.

[4] = target: ubiquitin; details: read-out: Kd of known UIM sequence for ubiquitin; cited from earlier work
[5] = target: T1, ubiquitin; assay: NMR titration of 15N-ubiquitin (1H-15N HSQC chemical shift perturbations); type: binding, S. pombe; details: for Kd: peptide or protein titrated into 100 µM 15N-ubiquitin, 20 mM NaH2PO4, 150 mM NaCl, 5 mM TCEP, pH 7.5, global fit of CSPs to one-site-binding model
Description: For interaction of the peptides with ^15N-ubiquitin, the lyophilized peptides were dissolved in MilliQ water and pH adjusted to 7.5. […] For the titrations of ubiquitin with each peptide, except the WT Dss1 peptide, 100 µM ubiquitin in NMR buffer was measured as one end point, and the 1 mM peptide and 100 µM ubiquitin as the other. Then, the peptide sample was titrated into the ubiquitin sample with titration points at 0, 50, 150, 300, 400, 500 and 1000 µM peptide. […] NMR samples were centrifuged 13.000×g for 5 min and transferred to either single-use 5 mm NMR tubes (Bruker) or 3 mm (Shigemi). To prepare NMR samples of ^15 N-labeled ubiquitin with full-length Dss1 and variants, lyophilized proteins were dissolved directly in the NMR buffer. The variants were each dissolved in 510 µL NMR buffer with 100 µM ubiquitin. The concentration of Dss1 in the NMR sample was determined by measuring the absorbance at 280 nm on a ND-1000 NanoDrop spectrophotometer, calibrated with the NMR buffer with 100 µM ubiquitin. The concentration of Dss1 varied between variants, depending on the purification yield. For all titrations, seven points of varying Dss1 concentration were recorded. To prepare NMR samples of ^15N-labeled ubiquitin with Spd1, Spd1 was buffer exchanged to MilliQ using a 3 kDa cut-off Amicon Ultra-0.5 ml centrifugal filter (Merk Millipore), lyophilized and resuspended in NMR buffer with 100 µM ubiquitin. […] For experiments with ubiquitin, 200 µL 1 mM ubiquitin was buffer exchanged to MilliQ water using a 3 kDa cut-off Amicon Ultra-0.5 ml centrifugal filter (Merk Millipore), lyophilized, and subsequently resuspended in 100 µL NMR buffer with 1 mM Dss1 for a final ubiquitin concentration of 2 mM and 1 mM, respectively. All samples were transferred to 3 mm (Shigemi) NMR tubes.
All NMR spectra were recorded on Bruker Avance III HD 600 MHz spectrometer with a Bruker proton-optimized quadruple resonance NMR ‘inverse’ (QCI) cryoprobe, a Bruker Avance III HD 750 MHz spectrometer with a Bruker proton-optimized triple resonance NMR ‘inverse’ (TCI) cryoprobe and a Bruker Avance Neo 800 MHz spectrometer with a Bruker carbon/nitrogen-optimized triple-resonance NMR 'observe' (TXO) cryoprobe. […] All spectra were zero-filled, apodized using cosine bells in all dimensions, Fourier transformed, and the zero-order phase was corrected manually using either nmrDraw, a component of NmrPipe or qMDD if spectra were recorded using non-linear-sampling (NLS). All spectra were analysed using the Analysis software.
The CSPs were fitted to a one-site-binding model using global fit, and the Kd-values are extracted using Eq. 2.2 Δδobs=Δδmax∙Pt+Lt+Kd-Pt+Lt+Kd^2-4Pt∙Lt^1/2/2∙Pt.
Peaks giving rise to large uncertainties in the fit, either due to weak signals or overlap, were removed after a first iteration of fitting, and the fit repeated on the remaining dataset.

T1 sequence (P0CH06 1-76 limits assumed): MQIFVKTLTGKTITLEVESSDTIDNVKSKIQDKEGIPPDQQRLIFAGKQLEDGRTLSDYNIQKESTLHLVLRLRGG

Row | emission intensity of bound Cy5-ubiquitin (apparent affinity) [1] | Substance | also measured
1 |  | LKVDVIDLTIESSSD [Pep47] | Kd [2]: 1 µM; emission intensity of bound Cy5-SUMO (apparent affinity) [3]: high apparent affinity
2 | no or negative effects on binding | GDDTLWPNPWDDEDI [Pep37, 15-mer variant of Dss1 UBS1, peptide array] | 
3 | only weak emission intensities | EDPDLKAAIQESLRE [Pep45, reference compound] | Kd [4]: 20 µM
4 |  | Ac-DLWEDDWDLWEDDWD-NH2 [PepDMD] | Kd [5]: 480 ± 40 µM
5 |  | Ac-GDDTLWENNWDDEDI-NH2 [Pep1] | chemical shift perturbations (CSPs) induced in the HSQC spectrum of ubiquitin ([5]; 1 mM 15-mer peptide added to 100 µM 15N-ubiquitin (120 µM for POLIIBP and ZFB)): much larger CSPs; Kd [5]: 3000 ± 200 µM
6 | increased emission intensity | GDDTEWENNWDDEDI [Pep9, 15-mer variant of Dss1 UBS1, peptide array] | 
7 | reduced binding | GDDTLWAAAWDDEDI [Pep36, 15-mer variant of Dss1 UBS1, peptide array] | 
8 | increased emission intensity | GDDDLWENNWDDEDI [Pep25, 15-mer variant of Dss1 UBS1, peptide array] | 
9 |  | GEAEERVVVISSSED [Pep48] | Kd [2]: ~100 µM; emission intensity of bound Cy5-SUMO (apparent affinity) [3]: lower-than-average affinity
10 | only weak emission intensities | IQEDWELAERLQREE [Pep46, reference compound] | Kd [4]: 100 µM
11 |  | Ac-DDTLWWEDDWWDDED-NH2 [PepDWD] | Kd [5]: 600 ± 30 µM
12 | enhanced emission | GDDTLWEPNWDDEDI [Pep40, 15-mer variant of Dss1 UBS1, peptide array] | 
13 | increased emission intensity | GDDTLWEDDWDDEDI [Pep20, 15-mer variant of Dss1 UBS1, peptide array] | 
14 | increased emission intensity | GDDTDWENNWDDEDI [Pep8, 15-mer variant of Dss1 UBS1, peptide array] | 
15 | increased emission intensity | GDDTLWENNWWDDED [Pep41, 15-mer variant of Dss1 UBS1, peptide array] | 

Row | Substance | emission intensity of bound Cy5-ubiquitin (apparent affinity) [1] | also measured
16 | GDDTFWENNWDDEDI [Pep5, 15-mer variant of Dss1 UBS1, peptide array] | increased emission intensity | 
17 | GDDTLWEVNWDDEDI [Pep38, 15-mer variant of Dss1 UBS1, peptide array] | enhanced emission; also recorded: increased ubiquitin affinity | 
18 | Ac-DDTLWWENNWWDDED-NH2 [Pep42] | increased emission intensity; also recorded: highest emission intensity | Kd [5]: 1200 ± 90 µM
19 | Ac-DLWENNWDLWENNWD-NH2 [Pep43] | highest emission intensity | Kd [5]: 1300 ± 120 µM
20 | GDDTWWENNWDDEDI [Pep11, 15-mer variant of Dss1 UBS1, peptide array] | increased emission intensity | 
21 | GDDTLWETNWDDEDI [Pep39, 15-mer variant of Dss1 UBS1, peptide array] | enhanced emission; also recorded: increased ubiquitin affinity | 
